From patent publication US20100183604A1, “PREVENTIVE/REMEDY FOR CANCER” (TAKEDA PHARMACEUTICAL COMPANY LIMITED, priority 2007, published 2010)
Entries after “also recorded” stand apart in the source; their conditions may differ.

Tests used:
[1] = test system: BT474 cells highly sensitive to trastuzumab; test: Viable cell count after HER2 inhibitor addition (no siRNA), high sensitive cell line; assay type: cell-based, human; conditions: 5 days; for growth suppression: 1 μmol/L, no siRNA; for concentration dependence of growth (proliferation) suppression: range of final concentrations, similar level in both lines
Protocol: (§1) After culture for 5 days at 37° C., 5% CO2, the number of viable cells was counted.

[2] = test system: trastuzumab low sensitive BT-474 cells; test: Viable cell count after HER2 inhibitor addition (no siRNA), low sensitive cell line; assay type: cell-based, human; conditions: 5 days; for growth suppression: 1 μmol/L, no siRNA; for concentration dependence of growth (proliferation) suppression: range of final concentrations, similar level in both lines
Protocol: as §1

SMILES	growth suppression [1]	concentration dependence of growth (proliferation) suppression [1]	growth suppression [2]	concentration dependence of growth (proliferation) suppression [2]
CC(C)(O)CC(=O)NCCn1ccc2ncnc(Nc3ccc(Oc4cccc(C(F)(F)F)c4)c(Cl)c3)c21 [compound A, N-{2-[4-({3-chloro-4-[3-(trifluoromethyl)phenoxy]phenyl}amino)-5H-pyrrolo[3,2-d]pyrimidin-5-yl]ethyl}-3-hydroxy-3-methylbutanamide]	complete suppression of growth	suppressed in a concentration-dependent manner; also recorded: concentration-dependent growth suppression	complete suppression of growth	suppressed in a concentration-dependent manner; also recorded: concentration-dependent growth suppression
CS(=O)(=O)CCNCc1ccc(-c2ccc3ncnc(Nc4ccc(OCc5cccc(F)c5)c(Cl)c4)c3c2)o1 [lapatinib]	complete suppression of growth	suppressed in a concentration-dependent manner; also recorded: concentration-dependent growth suppression	complete suppression of growth	suppressed in a concentration-dependent manner; also recorded: concentration-dependent growth suppression
